Source: patent publication US20200131144A1, “AMINE OR (THIO)AMIDE CONTAINING LXR MODULATORS” (Phenex-FXR GmbH, priority 2017, published 2020)

Tests used:
[1] = biological target: T1, GST-LXRβ ligand-binding domain (Homo sapiens, UniProt P55055, INS174Q); experiment: TR-FRETβ activity assay (NCoA3 coactivator peptide recruitment); assay type: biochemical; details: 1 μM 24(S)-25-epoxycholesterol as prestimulating agonist; inverse agonist unless *
T1 construct: amino acids 156-461; NP009052; made in house; host or cells: E. coli
T1 sequence (P55055 with tags, fused parts or gaps INS174Q limits assumed): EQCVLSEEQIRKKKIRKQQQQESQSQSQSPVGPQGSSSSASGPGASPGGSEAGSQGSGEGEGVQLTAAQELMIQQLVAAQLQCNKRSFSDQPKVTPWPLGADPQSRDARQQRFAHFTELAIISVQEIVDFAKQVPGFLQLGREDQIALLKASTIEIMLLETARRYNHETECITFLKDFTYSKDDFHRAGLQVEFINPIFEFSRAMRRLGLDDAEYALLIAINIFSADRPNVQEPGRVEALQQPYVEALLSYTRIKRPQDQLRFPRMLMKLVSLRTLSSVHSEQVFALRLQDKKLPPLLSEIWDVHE
Procedure: The tested compounds were usually dissolved, tested and stored as 20 mM stock solutions in DMSO. […] Sulfonyl acetic acid derivatives are shelf stable as solid at rt for long time as reported by Griesbrecht et al. (Synlett 2010:374) or Faucher et al. (J. Med. Chem. 2004; 47:18). TR-FRETβ Activity Assay Recombinant GST-LXRβ ligand-binding domain (LBD; amino acids 156-461; NP009052; SEQ ID NO:4) was expressed in E. coli and purified via gluthatione-sepharose affinity chromatography. N-terminally biotinylated NCoA3 coactivator peptide (SEQ ID NO:7) was chemically synthesized (Eurogentec). […] Finally, a detection mix was added containing anti GST-Tb cryptate (CisBio; 610SAXLB) and Streptavidin-XL665 (CisBio; 610SAXLB) as fluorescent donor and acceptor, respectively, as well as the coactivator peptide and LXRβ-LBD protein (SEQ ID NO:4). The reaction was mixed thoroughly, equilibrated for 1 h at 4° C. and vicinity of LXRβ and coactivator peptide was detected by measurement of fluorescence in a VictorX4 multiplate reader (PerkinElmer Life Science) using 340 nm as excitation and 615 and 665 nm as emission wavelengths. Assays were performed in triplicates. Final Assay Concentrations of Components: 240 mM KCl, 1 μg/μL BSA, 0.002% Triton-X-100, 125 pg/μL anti GST-Tb cryptate, 2.5 ng/μL Streptavidin-XL665, coactivator peptide (400 nM), LXRP protein ([…], i.e. 76 nM).

[2] = biological target: T2, LXRα full length (FL) (Homo sapiens, UniProt Q13133); experiment: LXR Gal4 reporter transient transfection assay, mammalian two-hybrid, FL-M2H Gal4α; assay type: cell-based; details: HEK293 cells; inverse agonist unless *
T2 construct: the full length (FL) proteins of LXRα (amino acids 1-447); NP005684; expressed in transfected cells; host or cells: HEK293
T2 sequence (Q13133 1-447): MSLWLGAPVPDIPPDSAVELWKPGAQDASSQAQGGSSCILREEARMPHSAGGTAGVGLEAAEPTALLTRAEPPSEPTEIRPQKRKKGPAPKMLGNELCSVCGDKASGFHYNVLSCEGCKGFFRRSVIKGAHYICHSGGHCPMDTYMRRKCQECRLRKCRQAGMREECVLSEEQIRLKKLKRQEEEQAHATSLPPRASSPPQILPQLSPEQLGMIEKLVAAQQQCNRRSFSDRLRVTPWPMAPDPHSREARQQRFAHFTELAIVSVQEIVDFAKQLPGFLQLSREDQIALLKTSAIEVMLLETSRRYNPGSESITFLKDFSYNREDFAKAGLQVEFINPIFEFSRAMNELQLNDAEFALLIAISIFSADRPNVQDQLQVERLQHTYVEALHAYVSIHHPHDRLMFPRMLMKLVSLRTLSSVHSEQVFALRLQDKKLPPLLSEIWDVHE
Procedure: (§1) The tested compounds were usually dissolved, tested and stored as 20 mM stock solutions in DMSO. Since sulfonyl acetic acid derivatives tend to decarboxylate under these conditions, these stock solutions were prepared, tested and stored as 20 mM DMSO stock solutions containing 100 mM trifluoroacetic acid (5 equivalents). Sulfonyl acetic acid derivatives are shelf stable as solid at rt for long time as reported by Griesbrecht et al. (Synlett 2010:374) or Faucher et al. (J. Med. Chem. 2004; 47:18).
(§2) LXR Gal4 Reporter Transient Transfection Assays
(§3) LXRα and LXRβ activity status was determined via detection of interaction with coactivator and corepressor proteins in mammalian two-hybrid experiments (M2H). For this, via transient transfection the full length (FL) proteins of LXRα (amino acids 1-447; NP005684; SEQ ID NO:1) or LXRβ-(amino acids 1-461; NP009052; SEQ ID NO:2) or the ligand-binding domains (LBD) of LXRα (amino acids 155-447 SEQ ID NO:3) or LXR (amino acids 156-461; SEQ ID NO:4) were expressed from pCMV-AD (Stratagene) as fusions to the transcriptional activation domain of NFkB. As cofactors, domains of either the steroid receptor coactivator 1 (SRC1; amino acids 552-887; SEQ ID NO:5) or of the corepressor NCoR (amino acids 1906-2312; NP006302; SEQ ID NO:6) were expressed as fusions to the DNA binding domain of the yeast transcription factor GAL4 (from pCMV-BD; Stratagene). Interaction was monitored via activation of a coexpressed Firefly Luciferase Reporter gene under control of a promoter containing repetitive GAL4 response elements (vector pFRLuc; Stratagene). Transfection efficiency was controlled via cotransfection of constitutively active pRL-CMV Renilla reniformis luciferase reporter (Promega). HEK293 cells were grown in minimum essential medium (MEM) with 2 mM L-glutamine and Earle's balanced salt solution supplemented with 8.3% fetal bovine serum, 0.1 mM non-essential amino acids, 1 mM sodium pyruvate, at 37° C. in 5% CO2. 3.5×10^4 cells/well were plated in 96-well cell culture plates in growth medium supplemented with 8.3% fetal bovine serum for 16-20 h to—90% confluency. For transfection, medium was taken off and LXR and cofactor expressing plasmids as well as the reporter plasmids are added in 30 μL OPTIMEM/well including polyethylene-imine (PEI) as vehicle. Typical amounts of plasmids transfected/well: pCMV-AD-LXR (5 ng), pCMV-BD-cofactor (5 ng), pFR-Luc (100 ng), pRL-CMV (0.5 ng). Compound stocks were prepared in DMSO, prediluted in MEM to a total volume of 120 μL, and added 4 h after addition of the transfection mixture (final vehicle concentration not exceeding 0.2%). Cells were incubated for additional 16 h, lysed for 10 min in 1×Passive Lysis Buffer (Promega) and Firefly and Renilla luciferase activities were measured sequentially in the same cell extract using buffers containing D-luciferine and coelenterazine, respectively. Measurements of luminescence were done in a BMG-luminometer.

[3] = biological target: T3, LXRβ full length (FL) (Homo sapiens, UniProt P55055, INS174Q); experiment: LXR Gal4 reporter transient transfection assay, mammalian two-hybrid, FL-M2H Gal4β; assay type: cell-based; details: HEK293 cells; inverse agonist unless *
T3 construct: the full length (FL) proteins of LXRα (amino acids 1-447); NP005684; NP009052; expressed in transfected cells; host or cells: HEK293
T3 sequence (P55055 with tags, fused parts or gaps INS174Q): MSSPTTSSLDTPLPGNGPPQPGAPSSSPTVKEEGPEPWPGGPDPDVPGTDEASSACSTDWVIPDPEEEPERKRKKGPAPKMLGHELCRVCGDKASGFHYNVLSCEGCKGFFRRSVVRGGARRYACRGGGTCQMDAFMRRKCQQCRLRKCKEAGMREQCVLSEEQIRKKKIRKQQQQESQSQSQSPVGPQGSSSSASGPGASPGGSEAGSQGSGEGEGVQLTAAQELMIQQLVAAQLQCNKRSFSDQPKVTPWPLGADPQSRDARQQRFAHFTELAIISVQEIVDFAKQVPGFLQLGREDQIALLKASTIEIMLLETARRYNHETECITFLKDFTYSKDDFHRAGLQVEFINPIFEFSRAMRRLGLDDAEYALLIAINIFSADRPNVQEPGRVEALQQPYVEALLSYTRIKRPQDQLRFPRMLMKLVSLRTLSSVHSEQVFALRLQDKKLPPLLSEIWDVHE
Procedure: as §1, §2, §3

## Cc1nn2ncccc2c1C(=O)N(Cc1ccc(-c2cccc(C(C)(C)C(=O)O)c2)cc1)Cc1ccc(C(F)(F)F)o1 [27/122]
[1]
  EC50: 1 to 10 µM
[2]
  EC50: 100 to 1000 nM
[3]
  EC50: 100 to 1000 nM

## Cc1nc2cccnc2c(C(=O)N(Cc2ccc(-c3cccc(C(C)(C)C(=O)O)c3)cc2)Cc2ccc(C(F)F)o2)c1C [27/126]
[1]
  EC50: 0.1 to 1 µM
[2]
  EC50: < 100 nM
[3]
  EC50: 100 to 1000 nM

## Cc1cc(C)c(CN(Cc2ccc(-c3cc(F)c(CF)c(S(=O)(=O)CC(=O)O)c3)cc2)Cc2ccc(C(F)(F)F)o2)c(C)c1 [Example 20, 2-((5-Fluoro-4-(fluoromethyl)-4′-((((5-(trifluoromethyl)furan-2-yl)methyl)(2,4,6-trimethyl-benzyl)amino)methyl)-[1,1′-biphenyl]-3-yl)sulfonyl)acetic acid]
[1]
  EC50: 1 to 10 µM
[3]
  EC50: 100 to 1000 nM

## COc1cc(-c2cc(F)c(CO)c(S(=O)(=O)CC(=O)O)c2)cnc1CN(Cc1ccc(C(F)(F)F)o1)Cc1c(C)ccc2ccccc12 [22/3]
[2]
  EC50: 1000 to 10000 nM
[3]
  EC50: 100 to 1000 nM

## COc1cc(-c2cccc(S(=O)(=O)CC(=O)O)c2)ccc1CN(Cc1ccc(C(F)(F)F)o1)Cc1c(C)cc(C)cc1C [15/2]
[1]
  EC50: 1 to 10 µM
[3]
  EC50: 1000 to 10000 nM

## Cc1cc(C)c(CN(Cc2ccc(-c3cccc(S(=O)(=O)CC(=O)O)c3)cc2)C(=O)c2ccc(C(F)(F)F)o2)c(C)c1 [27/57]
[1]
  EC50: > 10 µM

## Cc1ccc2ccccc2c1C(=O)N(Cc1ccc(-c2cccc(C(C)(C)C(=O)O)c2)cc1)Cc1ccc(C(=O)O)o1 [27/29]
[2]
  EC50: 1000 to 10000 nM
[3]
  EC50: 1000 to 10000 nM

## Cc1cc(C)c(CCN(Cc2ccc(-c3cccc(S(=O)(=O)CC(=O)O)c3)cc2)Cc2ccc(C(F)(F)F)o2)c(C)c1 [7/8]
[1]
  EC50: > 10 µM
[3]
  EC50: 1000 to 10000 nM

## Cc1cc(C)c(CN(Cc2ccc(-c3ccc(CO)c(S(=O)(=O)CC(=O)O)c3)cc2)Cc2ccc(C(F)(F)F)o2)c(C)c1 [Example 12, 2-((4-(Hydroxvmethyl)-4′-((((5-(trifluoromethyl)furan-2-yl)methyl)(2,4,6-trimethyl-benzyl)amino)methyl)-[1,1′-biphenyl]-3-yl)sulfonyl)acetic acid]
[1]
  EC50: 1 to 10 µM

## Cc1ccc2ccccc2c1C(=O)N(Cc1ccc(-c2cccc(S(=O)(=O)CC(=O)O)c2)cc1)Cc1ccc(C(N)=O)o1 [Example 16, 2-((4′-((N-((5-Carbamoylfuran-2-yl)methyl)-2-methyl-1-naphthamido)methyl)-[1,1′-biphenyl]-3-yl)sulfonyl)acetic acid]
[3]
  EC50: 1000 to 10000 nM

## O=C(O)CS(=O)(=O)c1cccc(-c2ccc(CN(Cc3ccccc3)Cc3ccc(C(F)(F)F)o3)cc2)c1 [7/11]
[3]
  EC50: 1000 to 10000 nM

## CC(C)(C(=O)O)c1cccc(-c2ccc(CN(Cc3ccc(C(F)(F)F)o3)C(CF)c3cccc4ccccc34)cc2)c1 (centres unmarked) [Example 18, 2-(4′-(((2-Fluoro-1-(naphthalen-1-yl)ethyl)((5-(trifluoromethyl)furan-2-yl)methyl)amino)methyl)-[1,1′-biphenyl]-3-yl)-2-methylpropanoic acid]
[3]
  EC50: 100 to 1000 nM

## O=C(O)CS(=O)(=O)c1cccc(-c2ccc(CN(Cc3ccc(C(F)(F)F)o3)C3CCc4cccc5cccc3c45)cc2)c1 (centres unmarked) [27/40]
[1]
  EC50: > 10 µM
[3]
  EC50: 1000 to 10000 nM

## COc1ccc2nc(C)c(C)c(C(=O)N(Cc3ccc(-c4cccc(C(C)(C)C(=O)O)c4)cc3)Cc3ccc(C(F)(F)F)o3)c2n1 [27/134]
[2]
  EC50: < 100 nM
[3]
  EC50: < 100 nM

## Cc1cc(C)c(CN(Cc2ccc(-c3cccc(S(=O)(=O)CC(=O)NS(=O)(=O)N(C)C)c3)cc2)Cc2ccc(C(F)(F)F)o2)c(C)c1 [Example 2/1]
[1]
  EC50: > 10 µM

## Cc1ccc2ccccc2c1C(=O)N(Cc1ccc(C(F)(F)F)o1)Cc1ccc(-c2cncc(C(C)(C)C(=O)O)c2)cc1C(F)F [27/63]
[1]
  EC50: 0.1 to 1 µM

## Cc1nc(C)c(CN(Cc2ccc(-c3cc(F)c(CO)c(S(=O)(=O)CC(=O)O)c3)cc2)Cc2ccc(C(F)(F)F)o2)c(C)n1 [22/6]
[1]
  EC50: 1 to 10 µM
[3]
  EC50: 1000 to 10000 nM

## Cc1ccc2ccccc2c1CN(Cc1ccc(C(F)(F)F)o1)Cc1ccc(-c2cccc(S(=O)(=O)CC(=O)O)c2)c2nccn12 [Example 27, 2-((3-(5-((((2-Methylnaphthalen-1-yl)methyl)((5-(trifluoromethyl)furan-2-yl)methyl)amino)methyl)imidazo[1,2-a]pyridin-8-yl)phenyl)sulfonyl)acetic acid]
[1]
  EC50: > 10 µM

## CC1CCc2ccccc2N1C(=O)N(Cc1ccc(-c2cccc(C(C)(C)C(=O)O)c2)cc1)Cc1ccc(C(F)(F)F)o1 (centres unmarked) [27/96]
[2]
  EC50: < 100 nM
[3]
  EC50: < 100 nM

## Cc1cc(C)c(CN(Cc2ccc(C(F)(F)F)o2)Cc2sc(-c3cccc(S(=O)(=O)CC(=O)O)c3)cc2Cl)c(C)c1 [15/4]
[1]
  EC50: > 10 µM
[3]
  EC50: 100 to 1000 nM

## Cc1cc(C)c(CC(=O)N(Cc2ccc(-c3cccc(S(=O)(=O)CC(=O)O)c3)cc2)Cc2ccc(C(F)(F)F)o2)c(C)c1 [Example 9/1]
[3]
  EC50: 1000 to 10000 nM
